Measurements from patent EP0873137B1, “COMPOSITIONS INCLUDING CALCIUM INFLUX BLOCKERS FOR INHIBITING CELL GROWTH” (The Wellesley Hospital Foundation, priority 1996, dated 1997).

How the values were obtained:
[1] = test system: Bone marrow derived mast cells (BMMC); test: Cell death assay (Trypan blue exclusion) in BMMC; format: cell-based; conditions: 24 hours
Experimental: Cytotoxicity assays were performed as described in Materials and Methods. In Figures 1A to 1C, BMMCs were incubated with either SLF (500ng/ml in all cases) (circles) or IL-3 (25% WEHI-3 conditioned medium in all cases) (squares) with the indicated amounts of ketotifen (Figure 1A), econazole (Figure 1B) or Ni^2+ (Figure 1C). In Figure 1D, BMMCs were incubated with IL-3, and the indicated amounts of SLF. Plotted circles also included 2.5mM Ni^2+ and plotted squares included no Ni^2+. In Figure 1E, BMMCs were coated with IgE anti-DNP monoclonal SPE-7, then incubated with IL-3 plus the indicated amounts of DNP-HSA (Ag), with 5µM econazole (circles) or without econazole (squares). In Figure 1F, BMMCs were incubated with IL-3 plus the indicated amounts of Substance P, with 5µM econazole (circles) or without econazole (squares). In all cases, the proportion of dead cells was determined after 24 hours in culture by counting cells that could or could not exclude Trypan blue. Error bars represent the standard error determined from triplicate measurements.
(§1) Cells. Bone marrow derived mast cells (BMMC) were generated as described previously (Berger et al., 1994). They were cultured in OPTI-MEM (Gibco, Burlington, ON) supplemented with 10% heat-inactivated FBS and 2% WEHI-3 supernatant as a source of IL-3. 32D-kit cells (gift from Dr. Mark Minden, Ontario Cancer Institute) are an IL-3-dependent myelomonocytic cell line expressing c-kit (Hu et al., 1995). 32D-kit cells were grown in RPMI (Gibco) supplemented with 10% heat-inactivated FBS, 2% WEHI-3 supematant, and 1 mg/ml G418 (Gibco). The p815 cell line is a murine mastocytoma cell line. P815 cells were grown in RPMI supplemented with 10% heat-inactivated FBS. Bcl-2 gp+e NIH 3T3 packaging cells were grown in Dulbecco's modified Eagle's medium (DMEM - Gibco) and supplemented with 10% FBS and 2 µg/ml puromycin (Sigma, St. Louis, Mo). All cell cultures also contained 55µM β-mercaptoethanol and antibiotics (both Sigma). SK-BR3, MDA-MB231 and MCF-7 cells were obtained from ATCC. SK-BR3 and MDA-MB231 cells were cultured in RPMI medium supplemented with 10% heat inactivated fetal bovine serum. MCF-7 cells were cultured in DMEM medium supplemented with 10% heat inactivated fetal bovine serum and 10 µg/ml human insulin (Sigma).
(§2) Cell death assays. 2.5 X 10^4 BMMCs, 32D-kit or P815 cells were placed in 96-well flat bottom plates in a volume of 0.1 ml RPMI containing 0.5% FBS. Cells were supplemented with either SLF, Substance P or IL3 plus Ca^2+ channel blocker. In the case of adding IgE, cells were incubated with 10 µg/ml SPE-7 for 45 minutes at 4°C followed by 3 washes with RPMI, 0.5% FBS before plating in 96 well plates and adding 100 ng/ml DNP-HSA. The proportion of dead cells was determined after 18 or 24 hours in culture by counting cells that could or could not exclude Trypan blue.

32D-kit cells = test: Cell death assay (Trypan blue exclusion) in 32D-kit cells; format: cell-based
Experimental: Figures 2A and 2B show induction of cell death in 32D-kit or p815 cells with SLF plus Ca^2+ influx blockers. 32D-kit (Figure 2A) or p815 (Figure 2B) cells were incubated with either SLF (solid bars) or IL-3 (striped bars) plus the indicated concentration of Ca^2+ influx blocker. Cell death was determined by Trypan Blue exclusion after 18 hours in culture.
32D-kit cells were incubated for 18 hours with SLF and 5µM econazole and oleic acid (solid bars), or with SLF and 5µM econazole and elaidic acid (hatched bars), or IL-3 and 5 µM econazole and oleic acid (stippled bars). The proportion of dead cells was determined by Trypan Blue exclusion.
(§3) Figures 6A and 6B show the effect of ionomycin on apoptosis induced by SLF and Ca^2+ influx blacker. In Figure 6A, 32D-kit cells were incubated for 18 hours with 5µM econazole and the indicated amounts of ionomycin in the presence of either SLF (circles) or IL-3 (squares). In Figure 6B, 32D-kit-Bcl-2 cells were incubated for 18 hours with 5µM econazole and the indicated amounts of ionomycin in the presence of either SLF (circles) or IL-3 (squares). The proportion of dead cells was determined by Trypan Blue exclusion.
(§4) In additional cultures, IL-3 alone or no factor was added and cell viability was similarly tested. The effect on cell viability of adding 25 or 250 µM YVAD-CHO was also evaluated in separate cultures in which no additional factors were added.
32D-kit cells were incubated with either SLF in the absence of YVAD-CHO (circles), or with SLF in the presence of 25 µM YVAD-CHO. (triangles), or IL-3 (squares) with the indicated amounts of econazole. The proportion of dead cells was evaluated by Trypan Blue exclusion after 18 hours in culture
as §1, §2

MDA-MB-231 cells = test: Cell death in autocrine stimulated MDA-MB-231 breast cancer cells; format: cell-based, human; conditions: 20µM econazole; YVAD-CHO 10 or 100 µM, ionomycin 0.1 nM to 1 µM, oleic acid 10 or 100 µM
Experimental: Bar 1: control; Bar 2: 20µM econazole; Bar 3: 20µM econazole and 10µM YVAD-CHO (ICE inhibitor); Bar 4: 20µM econazole and 100 µM YVAD-CHO; Bar 5: 20µM econazole and 0.1 nM ionomycin (calcium ionophore); Bar 6: 20µM econazole and 10 nM ionomycin; Bar 7: 20µM econazole and 1 µM ionomycin; Bar 8: 20µM econazole and 10 µM oleic acid (PLC activation inhibitor); and Bar 9: 20µM econazole and 100 µM oleic acid.
as §1
The MDA-MB-231 cell line is a highly anaplastic carcinoma of the breast. it too is tumorigenic in nude mice but expresses only low levels of erbB2. However it is FGF^R positive and is stimulated in an autocrine fashion by bFGF (el Yazidi et al., 1995). Experiments were carried out to determine the susceptibility of MDA-MB-231 cells to a Ca^2+ influx blocker and the influence of oleic acid, ionomycin, and YVAD-CHO on induction of cell death by the blocker. The results are summarized together in Figure 9B.

32D-kit-Bcl-2 cells = test: Cell death assay (Trypan blue exclusion) in Bcl-2 over-expressing 32D-kit cells; format: cell-based; conditions: 5µM econazole, 18 hours, Figure 6B
Experimental: as §3, §4
Generation of Bcl-2 over-expressing 32D-kit cells. gp + e bcl-2 retroviral producer cells were a gift from Dr. Y. Ben-David (Toronto) and contain an LXSN-based retroviral vector expressing genes for both puromycin resistance and murine bcl-2. For infection, a confluent layer of gp + e packaging cells were co-cultured with 32D-kit cells for 24 hours. Non-adherent 32D-kit cells were then removed, cultured for 48 hours and then selected for bcl-2 over-expressing cells in the presence of 2µg/ml puromycin.
as §2

32D-kit leukemia cells = test: 32D-kit leukemia in mice, SLF intravenously: G418-resistant spleen colonies in agar; format: in vivo
Experimental: Mice were inoculated intravenously with 1 X 10^7 G418-resistant 32D-kit cells. Between 3 and 5 weeks following the inoculation (Experiments 1 & 3; 5 weeks, experiment 2; 3 weeks), mice were given 100mg/kg ketotifen by oral gavage. Four hours following the ketotifen treatment, mice were injected with 15µg SLF intravenously. Two hours later the mice were given a further 100mg/kg ketotifen p.o. The following day, spleens were removed and assayed for the presence of leukemic cells by plating cells in 0.3% agar in growth medium containing 20% WEHI-3 conditioned medium and 1 mg/ml G418 to limit detection to the G418-resistant leukemic cells. Seven days later, colonies were enumerated.
(§5) Mice. For the in vivo 32D-kit experiments, mice were male C3H/ he mice 6 to 8 weeks old and obtained from Charles River Laboratories, Boston, Massachusetts. Mice were inoculated intravenously with 1 x 10^7 leukemic cells. Between 3 and 5 weeks following the inoculation, mice were given 100 mg/kg ketotifen (Sigma) in a volume of 0.4 ml water by oral gavage, Following the first ketotifen treatment, mice were injected intravenously or subcutaneously with 15 µg SLF in PBS. A second ketotifen treatment followed administration of SLF.
(§6) In order to determine the efficacy of the combination of a Ca^2+ influx blocker with an activating signal in vivo, mice inoculated with factor-dependent and G418-resistant 32D-kit leukemia cells were treated with a combination of ketotifen and SLF. In one set of experiments, spleen cells were removed and assayed for the presence of leukemic cells by plating cells in agar in growth medium containing 20% WEHI-3 conditioned medium and 1mg/ml G418 to limit detection to the G418-resistant leukemic cells. […] The number of G418-resistant colonies detected in animals that were injected with SLF only tended to be higher than those not receiving the factor, varying between 65 and 31,000 with an arithmetic average of 7,399, and a geometric mean of 1,545 colonies/spleen. […]

[2] = test system: all cells capable of forming colonies in agar in response to IL-3; test: 32D-kit leukemia in mice, SLF intravenously: all IL-3-dependent spleen colonies in agar; format: in vivo; conditions: ketotifen 100mg/kg p.o. twice, SLF 15µg intravenously; leukemic as well as normal cells
Experimental: Figure 11B is similar to Figure 11A, but in this case spleen cells were assayed for the presence of all cells capable of forming colonies in agar in response to IL-3, to include leukemic as well as normal cells.
as §5
as §6, with “SLF.” for “SLF. In one set of experiments, spleen cells were removed and assayed for the presence of leukemic cells by plating cells in agar in growth medium containing 20% WEHI-3 conditioned medium and 1mg/ml G418 to limit detection to the G418-resistant leukemic cells.”

[3] = co-incubated with SLF (500ng/ml), Figures 1A-C
[4] = stimulated with IgE plus antigen (DNP-HSA), with IL-3, 5µM econazole in Figure 1E
[5] = SLF and 5µM econazole, 18 hours
[6] = ketotifen 100mg/kg p.o. twice, SLF 15µg intravenously, spleens next day

[Ni+2] [Ni^2+]
cell death [1, 3]: converted to a death signal | cell death [1, 4]: combine with IgE receptor cross-linking to induce cell death

CCCCCCCC/C=C/CCCCCCCC(=O)O [elaidic acid, trans-9-octadecenoic acid]
rescue/protection from cell death induced by SLF and Ca^2+ influx blocker (32D-kit cells; [5]): not

C[C@H](CCC(=O)O)C[C@H](C)C[C@H](C)C(=O)/C=C(\O)[C@H](C)C[C@H](C)C/C=C/[C@@H](C)[C@@H](O)[C@@H](C)[C@@H](O)C[C@@H]1CC[C@@](C)([C@H]2CC[C@@](C)([C@@H](C)O)O2)O1 [ionomycin]
protection from death induced by the Ca^2+ influx blocker (MDA-MB-231 cells): can protect | cell death at higher levels of ionomycin (32D-kit-Bcl-2 cells): did not demonstrate significant cell death | protection from apoptosis by SLF plus blocker (32D-kit-Bcl-2 cells; low levels of ionomycin): similarly protected from apoptosis | cell death at higher concentrations of ionomycin (32D-kit cells; [5]): restoration of cell death | rescue/protection from cell death induced by SLF and Ca^2+ influx blocker (32D-kit cells; [5]): protects | concentration of maximal protection (32D-kit cells; SLF and 5µM econazole, 18 hours, Figure 6A): 10 nM

CN1CCC(=C2c3ccccc3CC(=O)c3sccc32)CC1 [ketotifen]
activity on the leukemic cells in vivo (32D-kit leukemia cells; SLF intravenously): little activity | G418-resistant colonies, arithmetic average (32D-kit leukemia cells; [6]): 5,502 colonies/spleen | G418-resistant colonies, geometric mean (32D-kit leukemia cells; [6]): 849 colonies/spleen | cell death [1, 3]: converted to a death signal | cell death [1, 4]: combine with IgE receptor cross-linking to induce cell death | IL-3-dependent colonies, arithmetic average [2]: 7,715 colonies/spleen | IL-3-dependent colonies, geometric mean [2]: 2,320 colonies/spleen

CCCCCCCC/C=C\CCCCCCCC(=O)O [oleic acid, cis-9-octadecenoic acid]
protection from death induced by the Ca^2+ influx blocker (MDA-MB-231 cells): can protect | range of effectiveness (rescue from cell death) (32D-kit cells; [5]): 1 to 100 µM | rescue/protection from cell death induced by SLF and Ca^2+ influx blocker (32D-kit cells; [5]): rescued from cell death

COc1ccc(CCN(C)CCCC(C#N)(c2ccc(OC)c(OC)c2)C(C)C)cc1OC (stereo not drawn) [verapamil]
inducing cell death (32D-kit cells; combined with SLF, not shown, cell type not stated): ineffective in inducing cell death

YVAD-CHO
protection from death induced by the Ca^2+ influx blocker (MDA-MB-231 cells): can protect | resistance to apoptosis induced by SLF plus econazole (32D-kit cells; 25 µM YVAD-CHO, 18 hours, Figure 8): provides resistance | protection from apoptosis induced by factor withdrawal (32D-kit cells; 25 or 250 µM YVAD-CHO, Figure 7B): fails to protect | protection from apoptosis induced by the topoisomerase inhibitor etoposide (32D-kit cells; not shown): protects
